{"source": "patent US7514254B2", "about": "“Plant-derived alkaline alpha-galactosidase” (The State of Israel, Ministry of Agriculture & Rural …, priority 1998, dated 2009)", "molecules": {"B1": {"name": "melon (Cucumis melo) fruit alkaline alpha-galactosidase Form I (Cucumis melo) (protein)", "chain": "MTVGAGITISDANLTVLGNRVLSDVHNNITLTAAPGGGVMNGAFIGVDQSDQIGSRRVFPIGKLIGLRFLCAFRFKLWWMTQRMGCSGQEVPFETQFLVVETRDGSNIAGNGEEGDAVYTVFLPILEGDFRAVLQGNDNNEIEICLESGDPSVDGFEGSHLVFVGAGSDPFETITYAVKSVEKHLQTFAHRERKKMPDILNWFGWCTWDAFYTDVTSDGVKKGLESFENGGIPPKFVIIDDGWQSVAKDATSADCKADNTANFANRLTHIKENYKFQKDGKEGERIENPALGLQHIVSYMKEKHATKYVYVWHAITGYWGGVSAGVKEMEQYESKIAYPVASPGVESNEPCDALNSITKTGLGLVNPEKVFNFYNEQHSYLASAGVDGVKVDVQNILETLGAGHGGRVKLARKYHQALEASISRNFQDNGIISCMSHNTDGLYSSKRNAVIRASDDFWPRDPASHTIHIASVAYNSLFLGEFMQPDWDMFHSLHPMAEYHGAARAVGGCAIYVSDKPGQHDFNLLKKLVLPDGSILRAKLPGRPTKDCLFTDPARDGKSLLKIWNLNDLSGVVGVFNCQGAGWCKVGKKNLIHDENPDTITGVIRAKDVSYLWKIAGESWTGDAVIFSHLAGEVVYLPQDASMPITLKPREFDVFTVVPVKELVNDIKFAPIGLIKMFNSGGAVKEMNHQPGSSNVSLKVRGSGPFGAYSSSKPKRVAVDSEEVEFMYDEGGLITIDLKVPEKELYLWDIRIEL"}, "B2": {"name": "alpha-galactosidase from Escherichia coli K12: alpha-galactosidase of Schmid and Schmitt, tetrameric protein (protein, UniProt P06720 1-451, looked up)", "Alpha-galactosidase": "MMSAPKITFIGAGSTIFVKNILGDVFHREALKTAHIALMDIDPTRLEESHIVVRKLMDSAGASGKITCHTQQKEALEDADFVVVAFQIGGYEPCTVTDFEVCKRHGLEQTIADTLGPGGIMRALRTIPHLWQICEDMTEVCPDATMLNYVNPMAMNTWAMYARYPHIKQVGLCHSVQGTAEELARDLNIDPATLRYRCAGINHMAFYLELERKTADGSYVNLYPELLAAYEAGQAPKPNIHGNTRCQNIVRYEMFKKLGYFVTESSEHFAEYTPWFIKPGREDLIERYKVPLDEYPKRCVEQLANWHKELEEYKKASRIDIKPSREYASTIMNAIWTGEPSVIYGNVRNDGLIDNLPQGCCVEVACLVDANGIQPTKVGTLPSHLAALMQTNINVQTLLTEAILTENRDRVYHAAMMDPHTAAVLGIDEIYALVDDLIAAHGDWLPGWLHR"}}, "key": {"[1]": {"tested_on": "melon (Cucumis melo) fruit acid form alpha-galactosidase", "assay": "Substrate kinetics (Lineweaver-Burk) of acid alpha-galactosidase", "type": "biochemical, muskmelon (Cucumis melo L. cv C-8)", "details": "for Km / Vmax: Lineweaver-Burk", "description": "For routine analysis and monitoring the activity in the purification steps, alpha-galactosidase was assayed as described by Smart and Pharr (“Characterization of alpha-galactosidase from cucumber leaves”, Plant Physiology, 66:731-734, 1980), using p-nitrophenyl alpha-galactoside (pNPG) as substrate. […] The reaction was terminated after 10 min by adding 1 ml of 5% (w/v) Na2CO3 and activity expressed as nmol nitrophenol per min as measured at 410 nm. […] The assay was started by adding 50 μl enzyme preparation at 35 C and terminated after 10 to 20 min by 2 min boiling. […] For the partial purification of the acid form of alpha-galactosidase the fractions active at pH 5.5 were pooled and concentrated by reverse dialysis against solid sucrose. […] The active fractions were then desalted by dialysis against buffer A for 12 hours with two changes of the buffer. This enzyme fraction was used for the characterization of the acidic form of alpha-galactosidase. […] The substrate specificity of the alpha-galactosidases was tested with pNPG, stachyose, raffinose, melibiose or guar gum (Sigma)."}, "[2]": {"tested_on": "Escherichia coli K12 alpha-galactosidase", "details": "Schmid and Schmitt 1976; cited from earlier work"}, "[3]": {"tested_on": "Pseudomonas fluorescens H-601 alpha-galactosidase", "details": "Hashimoto et al. 1991; relative Km values; cited from earlier work"}, "[4]": {"target": "T1, melon (Cucumis melo) fruit alkaline alpha-galactosidase Form II (Cucumis melo, UniProt Q84NI6)", "T1 construct": "native 102 kDa, denatured 92 kDa; assayed at pH 7.5", "T1 sequence (Q84NI6 1-772)": "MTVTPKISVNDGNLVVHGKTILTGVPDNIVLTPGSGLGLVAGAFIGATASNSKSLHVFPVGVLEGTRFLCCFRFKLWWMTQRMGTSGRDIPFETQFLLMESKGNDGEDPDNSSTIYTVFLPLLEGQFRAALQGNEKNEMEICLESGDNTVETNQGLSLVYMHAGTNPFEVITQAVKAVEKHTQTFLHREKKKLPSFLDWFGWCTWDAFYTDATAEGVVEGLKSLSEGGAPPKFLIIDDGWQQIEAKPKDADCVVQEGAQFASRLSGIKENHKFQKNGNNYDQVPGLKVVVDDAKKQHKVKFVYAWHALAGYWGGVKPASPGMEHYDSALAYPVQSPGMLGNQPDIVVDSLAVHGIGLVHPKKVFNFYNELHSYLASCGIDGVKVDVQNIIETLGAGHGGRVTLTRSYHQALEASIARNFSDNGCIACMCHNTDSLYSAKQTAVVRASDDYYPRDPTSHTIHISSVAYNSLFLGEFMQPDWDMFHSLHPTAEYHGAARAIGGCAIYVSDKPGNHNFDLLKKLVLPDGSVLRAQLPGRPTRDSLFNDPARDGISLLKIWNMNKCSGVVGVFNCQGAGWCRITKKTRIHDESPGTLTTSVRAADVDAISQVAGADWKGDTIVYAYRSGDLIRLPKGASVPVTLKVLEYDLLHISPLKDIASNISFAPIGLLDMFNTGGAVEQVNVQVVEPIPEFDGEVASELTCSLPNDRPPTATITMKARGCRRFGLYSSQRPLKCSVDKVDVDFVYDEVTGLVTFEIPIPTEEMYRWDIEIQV", "assay": "Substrate kinetics (Lineweaver-Burk) of alkaline alpha-galactosidase Form II", "type": "biochemical, muskmelon (Cucumis melo L. cv C-8)", "details": "for Vmax: Lineweaver-Burk", "description": "(§1) For routine analysis and monitoring the activity in the purification steps, alpha-galactosidase was assayed as described by Smart and Pharr (“Characterization of alpha-galactosidase from cucumber leaves”, Plant Physiology, 66:731-734, 1980), using p-nitrophenyl alpha-galactoside (pNPG) as substrate. Reaction was initiated by adding 50 μl enzyme aliquot to either 200 μl 100 mM pH 5.5 McIlvaine buffer or 100 mM pH 7.5 HEPES buffer, containing 5 mM pNPG at 35 C. The reaction was terminated after 10 min by adding 1 ml of 5% (w/v) Na2CO3 and activity expressed as nmol nitrophenol per min as measured at 410 nm. […] The assay was started by adding 50 μl enzyme preparation at 35 C and terminated after 10 to 20 min by 2 min boiling.\n(§2) The fractions from the DEAE-Sepharose chromatography which were active at pH 7.5 were pooled and dialyzed against buffer A for 12 h prior to loading onto an HPLC ion exchange chromatography column (Mono-Q HR 5/5, Pharmacia, Uppsala, Sweden), previously equilibrated with buffer A. Bound proteins were eluted with a linear gradient of 0.1 to 0.45 M NaCl and the active fractions were detected using pNPG as substrate at pH 7.5 as described above. […] For the further purification of Form II the active fractions of the peak II were chromatographed on hydrophobic interaction chromatography. The fractions were pooled, brought to 1 M (NH4)2SO4 and loaded on to a hydrophobic interaction column (phenyl-Sepharose CL-4B, 0.5×12 cm, Pharmacia, Uppsala, Sweden) previously equilibrated with buffer A containing 1 M (NH4)2SO4. The protein was eluted with a reverse stepwise gradient from 1 to 0 M (NH4)2SO4 with 50 mM intervals in buffer A. Fractions containing the activity peak were collected and dialyzed for 12 h against buffer A and the dialysate was concentrated by reverse dialysis against solid sucrose. The enzyme, partially purified by hydrophobic interaction chromatography, was used for the characterization of Form II. The active fractions from the hydrophobic interaction column were further purified. Active fractions were separated electrophoretically using a Mini Prep Cell (Bio-Rad Laboratories, Hercules, Calif.) for discontinuous native-PAGE with 7% polyacrylamide, according to manufacturer's instructions. Fractions (0.25 ml/fraction) were assayed at pH 7.5 with pNPG as substrate for the activity. The active fractions were pooled, concentrated by Vivaspin Concentrator (Vivascience LTD, Lincoln, England), and run in a 8% SDS-PAGE. Proteins in the SDS-PAGE were identified using Coomassie Blue staining."}, "[5]": {"target": "T2, melon (Cucumis melo) fruit alkaline alpha-galactosidase Form I (Cucumis melo, UniProt Q84NI7)", "T2 sequence (Q84NI7 1-754)": "B1 chain", "assay": "Substrate kinetics (Lineweaver-Burk) of alkaline alpha-galactosidase Form I", "details": "for Vmax: Lineweaver-Burk", "description": "as §1, §2\nTherefore, the active fractions from the Mono-Q column were used for the characterization of Form I. In addition, the Form I enzyme was further purified, as described in the following section."}, "[6]": {"substrate": "O=[N+]([O-])c1ccc(O[C@H]2O[C@H](CO)[C@H](O)[C@H](O)[C@H]2O)cc1", "assay": "purified protein, by the assay type", "details": "other: alkaline Form I; Lineweaver-Burk; 35.0 °C"}, "[7]": {"substrate": "OC[C@H]1O[C@H](OC[C@H]2O[C@H](O[C@]3(CO)O[C@H](CO)[C@@H](O)[C@@H]3O)[C@H](O)[C@@H](O)[C@@H]2O)[C@H](O)[C@@H](O)[C@H]1O", "assay": "purified protein, by the assay type", "details": "other: alkaline Form I; Lineweaver-Burk; 35.0 °C"}, "[8]": {"substrate": "OC[C@H]1O[C@H](OC[C@H]2O[C@H](OC[C@H]3O[C@H](O[C@]4(CO)O[C@H](CO)[C@@H](O)[C@@H]4O)[C@H](O)[C@@H](O)[C@@H]3O)[C@H](O)[C@@H](O)[C@H]2O)[C@H](O)[C@@H](O)[C@H]1O", "assay": "purified protein, by the assay type", "details": "other: alkaline Form I; Lineweaver-Burk; 35.0 °C"}, "[9]": {"substrate": "OC[C@H]1O[C@H](OC[C@H]2OC(O)[C@H](O)[C@@H](O)[C@@H]2O)[C@H](O)[C@@H](O)[C@H]1O", "assay": "purified protein, by the assay type", "details": "other: alkaline Form I; Lineweaver-Burk; 35.0 °C"}, "[10]": {"details": "raffinose versus melibiose; literature; cited from earlier work"}}, "data": [{"molecule": "OC[C@H]1O[C@H](OC[C@H]2OC(O)[C@H](O)[C@@H](O)[C@@H]2O)[C@H](O)[C@@H](O)[C@H]1O", "note": "(stereo partly drawn) [Melibiose, 6-O-alpha-D-galactopyranosyl-D-glucose]", "values": [{"measurement": "Vmax/Km ratio", "setting": "[1]", "value": 0.27}, {"measurement": "Km", "setting": "[1]", "value": 700, "unit": "µM"}, {"measurement": "Vmax", "setting": "[1]", "value": 0.19, "unit": "μmol mg^−1 protein min^−1"}, {"measurement": "Km", "setting": "[2]", "value": 3200, "unit": "µM"}, {"measurement": "Km", "setting": "[3]", "value": 3200, "unit": "µM"}, {"measurement": "Vmax", "setting": "[4]", "value": 0.23, "unit": "μmol mg^−1 protein min^−1"}, {"measurement": "Vmax", "setting": "[5]", "value": 0.3, "unit": "μmol mg^−1 protein min^−1"}]}, {"molecule": "O=[N+]([O-])c1ccc(O[C@H]2O[C@H](CO)[C@H](O)[C@H](O)[C@H]2O)cc1", "note": "[pNPG, p-nitrophenyl alpha-galactopyranoside]", "values": [{"measurement": "Vmax/Km ratio", "setting": "[1]", "value": 5.00}, {"measurement": "Km", "setting": "[1]", "value": 300, "unit": "µM"}, {"measurement": "Vmax", "setting": "[1]", "value": 1.5, "unit": "μmol mg^−1 protein min^−1"}, {"measurement": "pNPG concentration above which enzyme is inhibited (substrate inhibition)", "setting": "[1]; pNPG as substrate", "value": "above 5 mM"}, {"measurement": "Vmax/Km ratio", "setting": "[4]", "value": 2.63}, {"measurement": "Vmax", "setting": "[4]", "value": 7.9, "unit": "μmol mg^−1 protein min^−1"}, {"measurement": "Vmax/Km ratio", "setting": "[5]", "value": 1.17}, {"measurement": "Vmax", "setting": "[5]", "value": 1.4, "unit": "μmol mg^−1 protein min^−1"}]}, {"molecule": "B1", "values": [{"measurement": "Km", "setting": "[6]", "value": 1200, "unit": "µM"}, {"measurement": "Km", "setting": "[7]", "value": 1500, "unit": "µM"}, {"measurement": "Vmax", "setting": "[7]", "value": 0.56, "unit": "µmol/min"}, {"measurement": "Km", "setting": "[8]", "value": 4000, "unit": "µM"}, {"measurement": "Vmax", "setting": "[8]", "value": 0.24, "unit": "µmol/min"}, {"measurement": "Km", "setting": "[9]", "value": 20000, "unit": "µM"}, {"measurement": "Vmax", "setting": "[9]", "value": 0.3, "unit": "µmol/min"}]}, {"molecule": "B2", "values": [{"measurement": "activity with raffinose as compared to melibiose", "setting": "[10]", "value": "about 4%"}]}]}
